Each block holds one compound with its values, some of them ahead of it.
Legend:
[1] = tested on: Rattus norvegicus; experiment: Anti-inflammatory activity in rat assessed as inhibition of formalin-induced paw edema administered as po dose pretreated for 1 hr followed by formalin addition measured up to 6 hrs relative to control; assay type: functional
[2] = Antioxidant activity assessed as DPPH radical scavenging activity after 30 mins; assay type: functional
[3] = Anti glycation activity assessed as inhibition of BSA glycation after 7 days in presence of glucose by spectrofluorimetry assay; assay type: functional
[4] = Hemolytic activity in human RBC relative to control; assay type: cell-based, Erythrocyte; conditions: red blood cells (erythrocytes), read-out: Activity
[5] = tested on: MCF7; experiment: Cytotoxicity against human MCF7 cells after 48 hrs by MTT assay; assay type: functional, cell-based; conditions: MCF7, 48 h
[6] = tested on: Rattus norvegicus; experiment: Anti-inflammatory activity in rat assessed as inhibition of formalin-induced paw edema at 20 mg/kg, po pretreated for 1 hr followed by formalin addition measured up to 6 hrs relative to control; assay type: functional

SMILES: O=c1oc2ccc(Cl)cc2cc1-c1nc2ccccc2[nH]1
- inhibition (INH) [1]: 46.75%

- IC50 [2]: 58.1 µM
- IC50 [3]: 240 µM
SMILES: Oc1ccc(-c2nc3ncc(Cl)cc3[nH]2)c(O)c1

SMILES: O=C(Nc1nc2ccccc2[nH]1)c1cc2ccccc2oc1=O
- inhibition (INH) [1]: 42.85%

SMILES: O=C(Cc1cc(=O)oc2cc(O)ccc12)Nc1nc2ccccc2o1
- hemolysis [4]: 92.5%

- IC50 [2]: 72.5 µM
- IC50 [3]: 240 µM
SMILES: Oc1ccc(O)c(-c2nc3ncc(Cl)cc3[nH]2)c1

SMILES: Cc1nnc(N2C(=O)CSC2c2ccccc2[N+](=O)[O-])s1 (centres undefined)
- IC50 [5]: 46.3 µM

SMILES: COc1ccc2c(c1)c(CC(=O)O)c(C)n2C(=O)c1ccc(Cl)cc1 [INDOMETHACIN]
- inhibition in vivo at 20 mg/kg [6]: 54.5%

Source: ChEMBL document CHEMBL4364277, “Medicinal prospects of antioxidants: A review” (Eur J Med Chem, 2019)
